Patent US20210059246A1, “METHOD FOR EFFECTIVELY CONTROLLING COCCOID INSECT PESTS” (Ecología y Protección Agrícola, S.L., priority 2017, published 2021)
“And” between values parts separate entries of the source, which are not always exact repeats. Equal entries are not always repeated.

Columns and labels:
[1] = test system: Aonidiella aurantii males; conditions: within natural semiochemical matrix; Vacas et al. 2017; cited from earlier work
[2] = test system: Aonidiella aurantii males; experiment: Field trap test: effective flow attracting A. aurantii males within the interlinked semiochemical matrix; format: in vivo; conditions: for EFFECTIVE FLOW: orange
Method: Experiments for obtaining an effective flow to combat the diaspidid Aonidiella aurantii were carried out on citrus crops located in the province of Huelva in 2015 and 2016.
For these assays, four plots of different varieties of citrus trees with surface areas comprised between 2 and 10 hectares were initially taken.
An artificial semiochemical matrix 1 was generated therein by arranging 500 diffusers/ha, with a substantially constant initial emission flow-1 of 300 μg/diffuser/day (optimal flow according to the state of the art) of (3S,6RS)-3-methyl-6-isopropenyl-9-decen-1-yl acetate.
In the interior of these artificial semiochemical matrices, two blocks of seven diffusers with different emission flows were installed in each assay. These blocks were separated by a distance of more than 80 meters therebetween and the diffusers were separated 25 meters intra-block. Each block included: • (a) a glued trap, without any kind of semiochemical emission; • (b) a glued trap, with a diffuser with a substantially constant emission flow of 25 μg/day of (3S,6RS)-3-methyl-6-isopropenyl-9-decen-1-yl acetate. • (c) a glued trap, with a diffuser with a substantially constant emission flow of 50 μg/day of (3S,6RS)-3-methyl-6-isopropenyl-9-decen-1-yl acetate. • (d) a glued trap, with a diffuser with a substantially constant emission flow of 100 μg/day of (3S,6RS)-3-methyl-6-isopropenyl-9-decen-1-yl acetate. • (e) a glued trap with a diffuser with a substantially constant emission flow of 200 μg/day of (3S,6RS)-3-methyl-6-isopropenyl-9-decen-1-yl acetate. • (f) a glued trap with a diffuser with a substantially constant emission flow of 300 μg/day of (3S,6RS)-3-methyl-6-isopropenyl-9-decen-1-yl acetate (initial flow-1). • (g) a glued trap with a diffuser with a substantially constant emission flow of 400 μg/day of (3S,6RS)-3-methyl-6-isopropenyl-9-decen-1-yl acetate.
All the traps were placed in the trees at a height of 1.5 m. The traps used were of the 9.5×15 cm white sticky sheet type. Diffusers with a substantially constant emission flow were fixed to the center of the sticky sheet. Replacement of the sheets, intra-block rotation of the traps and reading of the male captures was performed on a weekly basis. Upon completing the first rotation of the traps, it was observed that those whose emission corresponded to the flow of […] had the highest number of captured males and not the traps with an initial flow-1 of 300 μg/diffuser/day (FIG. 1).
Subsequently, a new iteration for obtaining the effective flow-2 within the new interlinked matrix was initiated, to which end the previous diffusers were withdrawn and a new artificial semiochemical matrix-2 was generated through the installation of 500 diffusers/ha, with a substantially constant initial emission flow-2 equal to 25 μg/day (effective flow-1) of (3S,6RS)-3-methyl-6-isopropenyl-9-decen-1-yl acetate.
Two blocks of seven diffusers were installed in the interior of this new interlinked semiochemical matrix in each assay. These blocks were separated by a distance of more than 80 meters therebetween and the diffusers were separated 25 meters intra-block. […]

Aonidiella aurantii [3] = experiment: Field control of A. aurantii in citrus crops, percentage of damaged fruit; format: in vivo; conditions: 15.00 μg/diffuser/day
Method: With the final effective flow value (15 μg/diffuser/day), the assays for ascertaining the effective flow rate resulting from the combinations of the final effective flow of 15 μg/diffuser/day with an effective number of devices of 500 diffusers/ha, 380 diffusers/ha, 250 diffusers/ha, 100 diffusers/ha and 50 diffusers/ha continued in 2017, in addition to the result of chemical controls carried out using the products currently authorized to combat this pest. The effectiveness of the treatments was evaluated in accordance with the percentage of damaged fruit by means of sampling prior to picking the fruit. In order to determine said percentage, the number of shields of A. aurantii females per fruit was counted using the following protocol: 20 trees were selected per hectare and 10 fruits were taken from each tree: 8 from the exterior (from all the orientations and randomly) and 2 from the interior (randomly). A fruit with more than 10 shields was considered damaged. In the case of the treatment based on chemical control, a surface area equivalent to the other treatments was evaluated.

Aonidiella aurantii [4] = experiment: as above; format: in vivo; conditions: for EFFECTIVE CONTROL [% DAMAGE]: orange
Planococcus ficus males = experiment: Field trap test: effective flow attracting P. ficus males within the interlinked semiochemical matrix; format: in vivo; conditions: for EFFECTIVE FLOW: table grapes
Method: The response of the males of the species P. ficus, at different emission flows of senecioate S-lavandulyl, was evaluated in various field tests carried out on table grape crops located in the Municipal District of […] de Murcia and Totana, both municipalities in the Region of Murcia in 2015, 2016 and 2017. For these assays, four plots of different varieties of table grapes with surface areas comprised between 1 and 4 hectares were initially taken. An artificial semiochemical matrix-1 was generated therein through the installation of 1,000 diffusers/ha, with a substantially constant emission flow of 300 μg/day of S-lavandulyl senecioate (initial flow-1). The choice of this initial emission flow is based on the average emission of commercial diffusers for controlling this pest. In the interior of these artificial semiochemical matrices, two blocks of six diffusers with different emission flows were installed in each assay. These blocks were separated by a distance of more than 80 meters therebetween and the diffusers were separated 25 meters intra-block. Each block included: • (a) a glued trap, without any kind of semiochemical emission. • (b) a glued trap, with a substantially constant emission flow of 10 μg/day of S-lavandulyl senecioate. • (c) a glued trap, with a diffuser with a substantially constant emission flow of 50 μg/day of S-lavandulyl senecioate. • (d) a glued trap, with a diffuser with a substantially constant emission flow of 100 μg/day of S-lavandulyl senecioate. • (e) a glued trap with a diffuser with a substantially constant emission flow of 200 μg/day of S-lavandulyl senecioate. • (f) a glued trap with a diffuser with a substantially constant emission flow of 300 μg/day of S-lavandulyl senecioate (initial flow-1). All the traps were placed in the trees at a height of 2 m. The traps used were of the 9.5×15 cm white sticky sheet type. Diffusers with a substantially constant emission flow were fixed to the center of the sticky sheet. Replacement of the sheets, intra-block rotation of the traps and reading of the male captures was performed on a weekly basis. Upon completing the first rotation of the traps it was observed that those whose emission corresponded to the emission flow of […] (effective flow-1) achieved the highest number of captures within the interlinked semiochemical matrix (FIG. 4). Next, a new iteration for obtaining the effective flow-2 within the new interlinked matrix was initiated, to which end the previous diffusers were withdrawn and a new artificial semiochemical matrix-2 was generated through the installation of 1,000 diffusers/ha, with a substantially constant emission flow of 10 μg/day (effective flow-1) of S-lavandulyl senecioate. Two blocks of six diffusers were installed in the interior of this new interlinked semiochemical matrix in each assay. These blocks were separated by a distance of more than 80 meters therebetween and the diffusers were separated 25 meters intra-block. Each block included: • (a) a glued trap, without any kind of semiochemical emission; • (b) a glued trap, with a diffuser with a substantially constant emission flow of 0.1 μg/day of S-lavandulyl senecioate. • (c) a glued trap, with a diffuser with a substantially constant emission flow of 5 μg/day of S-lavandulyl senecioate. • (d) a glued trap, with a diffuser with a substantially constant emission flow of 10 μg/day of S-lavandulyl senecioate. • (e) a glued trap with a diffuser with a substantially constant emission flow of 15 μg/day of S-lavandulyl senecioate. • (f) a glued trap with a diffuser with a substantially constant emission flow of 25 μg/day of S-lavandulyl senecioate. • (g) a glued trap with a diffuser with a substantially constant emission flow of 50 μg/day of S-lavandulyl senecioate. All the traps were placed in the trees at a height of 2 m. The traps used were of the 9.5×15 cm white sticky sheet type. The diffusers with a substantially constant emission flow were fixed to the center of the sticky sheet. […]

Planococcus ficus = experiment: Field control of P. ficus in table grape crops, percentage of bunches with presence of pest, molasses or fumigines; format: in vivo; conditions: table grapes
Method: With the final definitive effective flow value (5-10 μg/diffuser/day), the assays for ascertaining the effective flow rate resulting from the combinations of the final effective flow with an effective number of devices of 1,000 diffusers/ha, 500 diffusers/ha, 250 diffusers/ha and 100 diffusers/ha continued in 2016 and 2017. Since the plots where the assays were carried out were used for organic or environmentally friendly farming, it was not possible to establish a chemical control for comparing the results of the effective control of Planococcus ficus. The effectiveness of the treatments was assessed in accordance with the percentage of bunches with presence of Planococcus ficus, molasses or fumigines by sampling prior to picking the grapes. In order to determine said percentage, 20 vines per hectare were taken randomly and 20 bunches were inspected in each, of which the 10 bunches closest to the center of the vine and the 10 bunches farthest from the vine were chosen, covering the entire vine. Both bunches in contact with primary branches were taken and isolated without touching any other branch. A total of […].

## C=CCCC(CC[C@H](C)CCOC(C)=O)C(=C)C (mixture of isomers) [(3S,6RS)-3-methyl-6-isopropenyl-9-decen-1-yl acetate]
[1]
  optimal flow according to the state of the art: 300 μg/diffuser/day
[2]; 1st iteration, artificial semiochemical matrix 300.00 μg/diffuser/day, 500 diff/Ha, 2015 Rio Tinto-Huelva
  EFFECTIVE FLOW: 25.00 μg/diffuser/day
[2]; 2nd iteration, artificial semiochemical matrix 25.00 μg/diffuser/day, 500 diff/Ha, 2016 Nerva Huelva
  EFFECTIVE FLOW: 15.00 μg/diffuser/day
[2]; 3rd iteration, artificial semiochemical matrix 15.00 μg/diffuser/day, 380 diff/Ha, 2016 El Campillo-Huelva
  EFFECTIVE FLOW: 15.00 μg/diffuser/day
[2]; first rotation, matrix-1 of 500 diffusers/ha at 300 μg/diffuser/day, FIG. 1
  emission flow with the highest number of captured males (effective flow-1): 25 µg/diffuser/day
[2]; matrix-2 of 500 diffusers/ha at 25 μg/day, FIG. 2
  emission flow with higher number of captures (effective flow-2): 15 µg/day
[2]; third iteration, matrix of 500 diffusers/ha at 15 μg/day, FIG. 3
  final effective flow: 15 μg/diffuser/day
Aonidiella aurantii [3]; 50 diff/Ha, 0.75 mg/Ha/day, 2017 Serra-Valencia, orange
  EFFECTIVE CONTROL [% DAMAGE]: 3.30% and 4.00%
Aonidiella aurantii [3]; 100 diff/Ha, 1.50 mg/Ha/day, 2017 Serra-Valencia, orange
  EFFECTIVE CONTROL [% DAMAGE]: 5.10% and 3.80%
Aonidiella aurantii [3]; 250 diff/Ha, 3.75 mg/Ha/day, 2017 Monserrat-Valencia, mandarine
  EFFECTIVE CONTROL [% DAMAGE]: 4.20%
Aonidiella aurantii [3]; 250 diff/Ha, 3.75 mg/Ha/day, 2017 Monserrat-Valencia, orange
  EFFECTIVE CONTROL [% DAMAGE]: 3.00%
Aonidiella aurantii [3]; 250 diff/Ha, 3.75 mg/Ha/day, 2017 Picasent-Valencia, mandarine
  EFFECTIVE CONTROL [% DAMAGE]: 1.90%
Aonidiella aurantii [4]; 5 μg/day at 500 emission points per hectare
  effective flow rate value determined within the interlinked semiochemical matrix after successive iterations: 2.5 mg per hectare and day
Aonidiella aurantii [4]; 15.00 μg/diffuser/day, 380 diff/Ha, 5.70 mg/Ha/day, 2016 El Campillo-Huelva
  EFFECTIVE CONTROL [% DAMAGE]: 1.70% and 0.70% and 0.60%
Aonidiella aurantii [4]; 300 μg/day at 500 emission points per hectare
  flow rate corresponding to the optimal flow according to the state of the art: 150 mg per hectare and day
Aonidiella aurantii [4]; matrix 25.00 μg/diffuser/day, 500 diff/Ha, 12.50 mg/Ha/day, 2016 Nerva Huelva
  EFFECTIVE CONTROL [% DAMAGE]: 7.30% and 7.50% and 8.00%

## C=C(C)[C@H](CC=C(C)C)COC(=O)C=C(C)C [S-lavandulyl senecioate]
Planococcus ficus males; 1st iteration, artificial semiochemical matrix 300.00 μg/diffuser/day, 1,000 diff/Ha, 2015 Alhama de Murcia
  EFFECTIVE FLOW: 10.00 μg/diffuser/day
Planococcus ficus males; 2nd iteration, artificial semiochemical matrix 10.00 μg/diffuser/day, 1,000 diff/Ha, 2016 Alhama de Murcia
  EFFECTIVE FLOW: 10.00 μg/diffuser/day
Planococcus ficus males; 3rd iteration, artificial semiochemical matrix 5.00 μg/diffuser/day, 1,000 diff/Ha, 2017 Alhama de Murcia
  EFFECTIVE FLOW: 5.00 μg/diffuser/day
Planococcus ficus males; 3rd iteration, artificial semiochemical matrix 10.00 μg/diffuser/day, 500 diff/Ha, 2016 Alhama de Murcia
  EFFECTIVE FLOW: 10.00 μg/diffuser/day
Planococcus ficus males; after second iteration
  final definitive effective flow value: 5-10 μg/diffuser/day
Planococcus ficus males; matrix-1 of 1,000 diffusers/ha at 300 μg/day, FIG. 4
  emission flow with the highest number of captures (effective flow-1): 10 µg/day
Planococcus ficus males; matrix-2 of 1,000 diffusers/ha at 10 μg/day, FIG. 5
  flows with the highest number of male captures: 5 µg/day and 10 µg/day
Planococcus ficus; 5 μg/diffuser/day, 100 diff/Ha, 0.50 mg/Ha/day, 2017 Totana-Murcia
  EFFECTIVE CONTROL [% DAMAGE]: 4.50%
Planococcus ficus; 5 μg/diffuser/day, 250 diff/Ha, 1.25 mg/Ha/day, 2017 Totana-Murcia
  EFFECTIVE CONTROL [% DAMAGE]: 1.80%
Planococcus ficus; 5.00 μg/diffuser/day, 500 diff/Ha, 2.50 mg/Ha/day, 2017 Alhama de Murcia
  EFFECTIVE CONTROL [% DAMAGE]: 0.80% and 1.40%
Planococcus ficus; 5.00 μg/diffuser/day, 1,000 diff/Ha, 5.00 mg/Ha/day, 2017 Alhama de Murcia
  EFFECTIVE CONTROL [% DAMAGE]: 2.30% and 0.00%
Planococcus ficus; 10 μg/diffuser/day, 100 diff/Ha, 1.00 mg/Ha/day, 2017 Totana-Murcia
  EFFECTIVE CONTROL [% DAMAGE]: 3.00%
Planococcus ficus; 10 μg/diffuser/day, 250 diff/Ha, 2.50 mg/Ha/day, 2017 Totana-Murcia
  EFFECTIVE CONTROL [% DAMAGE]: 2.90%
Planococcus ficus; 10.00 μg/diffuser/day, 500 diff/Ha, 5.00 mg/Ha/day, 2016 Alhama de Murcia
  EFFECTIVE CONTROL [% DAMAGE]: 0%
Planococcus ficus; 10.00 μg/diffuser/day, 1,000 diff/Ha, 10.00 mg/Ha/day, 2016 Alhama de Murcia
  EFFECTIVE CONTROL [% DAMAGE]: 1.20% and 0.90% and 3.70%
